Data from US20230048576A1, “COMPOUNDS FOR THE TREATMENT OF NEUROPATHIC PAIN” (City of Hope, priority 2019, published 2023).
≈ marks a conversion by molar mass, not a printed value. Where “and” joins values, the source holds several entries; their conditions need not be identical. Equal values may be shown once. Entries after “also recorded” stand apart in the source; their conditions may differ. Marks after values point to notes of the source that are not given here.

How the values were obtained:
[1] = test system: Taxol-induced neuropathic pain; test: Von Frey test (mechanical allodynia) in Taxol induced model of neuropathic pain; format: in vivo, rat
Protocol: (§1) Neuropathic pain was induced by intraperitoneal administration of Taxol at a dose level of 6 mg/kg on study days 0-6 and 12 mg/kg on study days 7-12. Following injection of Taxol animals experienced pain as was assessed using the von Frey test. The development of neuropathic pain was confirmed by measuring mechanical allodynia (Von Frey test) on study day 13 (for inclusion) and on study day 14 (1 hour and 2 hour post dosing) and 24 hour post first dosing.
All data are presented as means±SEM. Each treatment group was compared to the Vehicle group using Two way ANOVA (for VF) followed by Tukey post-test (GraphPad). Vehicle group is compared to naïve group using T-test. A p value<0.05 is considered to represent a significant difference.
The response to tactile allodynia was evaluated using the Von Frey apparatus (Touch Test®). The rat was placed in an enclosure and positioned on a metal mesh surface, but allowed to move freely. A set of dull monofilaments provide an increasing force was applied on the animal plantar surface of the paw. The lowest force requires for animal paw withdrawal was recorded. Low force values recorded in this test indicate a painful state.

[2] = Solubility of purified LR-90 in different vehicles; format: physicochemical
Protocol: In order to develop a vehicle formulation for LR-90 for use in humans, 15 different vehicles were tested to measure the solubility of the purified LR-90 (Table 6).

[3] = Stability in acidic environment (simulated gastric fluid test), precipitation under polarized light microscope; format: physicochemical
Protocol: To test the stability in the acidic environment (simulated gastric fluid test) of 5 and 10 mg/ml of LR-90 in 20% HPβCD in pH 8.0 buffer, the two concentrations were added into the equal volume of pH 1.2 buffer, mixed completely, and then observed under a polarized light microscope.

[4] = Formulation stability in 20% HPβCD in pH 8.0 buffer (HPLC area %); format: physicochemical
[5] = Solubility of purified LR-90 in different vehicles; format: physicochemical; conditions: 20% HPβCD in pH 8.0 buffer (w/v); 5 or 10 mg/ml
[6] = Mean group body weight in Taxol model; format: in vivo, rat; conditions: 25 mg/kg PO, Group 6
Protocol: as §1

[7] = 5 mg/ml LR-90 in 20% HPβCD in pH 8.0 buffer
[8] = 10 mg/ml LR-90 in 20% HPβCD in pH 8.0 buffer

## CC(C)(Oc1ccc(NC(=O)Nc2ccc(Cc3ccc(NC(=O)Nc4ccc(OC(C)(C)C(=O)O)cc4)c(Cl)c3)cc2Cl)cc1)C(=O)O [LR-90, methylene bis[4,4′-(2-chlorophenylureidophenoxyisobutyric acid)]]
[1]; 25 mg/kg
  effect on the sensitivity of the treated animals to mechanical stimulation: No significant effect
[1]; 25 mg/kg PO, Group 6, Baseline
  mean Von Frey force required for withdrawal: 60.00 g
[1]; 25 mg/kg PO, Group 6, Day 13 pre dosing
  mean Von Frey force required for withdrawal: 9.81 g
[1]; 25 mg/kg PO, Group 6, Day 14 1 hour post dosing
  mean Von Frey force required for withdrawal: 21.88 g
[1]; 25 mg/kg PO, Group 6, Day 14 2 hours post dosing
  mean Von Frey force required for withdrawal: 17.31 g
[1]; 25 mg/kg PO, Group 6, Day 15 24 hours post dosing
  mean Von Frey force required for withdrawal: 14.13 g
[1]; 50 mg/kg
  effect on the sensitivity of the treated animals to mechanical stimulation: No significant effect
[1]; 50 mg/kg PO, Group 5, Baseline
  mean Von Frey force required for withdrawal: 60.00 g
[1]; 50 mg/kg PO, Group 5, Day 13 pre dosing
  mean Von Frey force required for withdrawal: 9.81 g
[1]; 50 mg/kg PO, Group 5, Day 14 1 hour post dosing
  mean Von Frey force required for withdrawal: 17.38 g
[1]; 50 mg/kg PO, Group 5, Day 14 2 hours post dosing
  mean Von Frey force required for withdrawal: 22.13 g
[1]; 50 mg/kg PO, Group 5, Day 15 24 hours post dosing
  mean Von Frey force required for withdrawal: 16.75 g
[1]; 100 mg/kg PO, Group 4, Baseline
  mean Von Frey force required for withdrawal: 57.88 g
[1]; 100 mg/kg PO, Group 4, Day 13 pre dosing
  mean Von Frey force required for withdrawal: 10.06 g
[1]; 100 mg/kg PO, Group 4, Day 14 1 hour post dosing
  mean Von Frey force required for withdrawal: 34.69**** g
[1]; 100 mg/kg PO, Group 4, Day 14 2 hours post dosing
  mean Von Frey force required for withdrawal: 32.56±7.56 g and 32.56*** g
[1]; 100 mg/kg PO, Group 4, Day 15 24 hours post dosing
  mean Von Frey force required for withdrawal: 26.25 g
[1]; 100 mg/kg, Group 4, 1 hour and 2 hour post dosing on study day 14
  effect on neuropathic pain compared to the vehicle group (Von Frey test): statistically significantly reduced the neuropathic pain; also recorded: significantly effective in reducing neuropathic pain
[2]; Media: 10% Kolliphor RH40 in water (W/V)
  Solubility: 1220 µg/mL (≈ 1.72 mM)
[2]; Media: 10% Solutol in water (W/V)
  Solubility: 1250 µg/mL (≈ 1.76 mM)
[2]; Media: 10% TPGS in water (W/V)
  Solubility: 560 µg/mL (≈ 0.789 mM)
[2]; Media: 20% Labsol tn water (W/V)
  Solubility: 1650 µg/mL (≈ 2.33 mM)
[2]; Media: 30% Captisol in water (W/V)
  Solubility: 1710 µg/mL (≈ 2.41 mM)
[2]; Media: 40% HPβCD in water (W/V)
  Solubility: 3660 µg/mL (≈ 5.16 mM)
[2]; Media: DMA
  Solubility: >531000 µg/mL
[2]; Media: DMSO
  Solubility: >258500 µg/mL
[2]; Media: EtOH
  Solubility: >4600 µg/mL
[2]; Media: PEG300
  Solubility: >16790 µg/mL
[2]; Media: PEG400
  Solubility: >10100 µg/mL
[2]; Media: PG
  Solubility: >2270 µg/mL
[2]; Media: pH 6.8
  Solubility: 1670 µg/mL (≈ 2.35 mM)
[2]; Media: pH 8
  Solubility: 7120 µg/mL (≈ 10 mM)
[3]; 5 mg/ml LR-90 in 20% HPβCD in pH 8.0 buffer, after an hour
  precipitation after mixing with equal volume of pH 1.2 buffer: no precipitation
[3]; 10 mg/ml LR-90 in 20% HPβCD in pH 8.0 buffer, about 60 min
  precipitation after mixing with equal volume of pH 1.2 buffer: Very little precipitation
[4]; [7]
  Final Purity (24 hr) (HPLC area): 99.20%
  Initial Purity (HPLC area): 99.21%
[4]; [8]
  Final Purity (24 hr) (HPLC area): 99.14%
  Initial Purity (HPLC area): 99.20%
[4]; 20% HPβCD solution, at least for 24 hours
  degradation of the compound: no degradation
[5]
  dissolution to a solution of the drug target concentration: could be dissolved
[6]; Baseline
  Mean group body weight: 223.50 g
  Mean group body weight (% from baseline): 100.00%
[6]; Day 1
  Mean group body weight: 235.00 g
  Mean group body weight (% from baseline): 105.16%
[6]; Day 3
  Mean group body weight: 237.50 g
  Mean group body weight (% from baseline): 106.26%
[6]; Day 5
  Mean group body weight: 255.50 g
  Mean group body weight (% from baseline): 114.32%
[6]; Day 7
  Mean group body weight: 264.30 g
  Mean group body weight (% from baseline): 118.31%
[6]; Day 9
  Mean group body weight: 275.88 g
  Mean group body weight (% from baseline): 123.38%
[6]; Day 11
  Mean group body weight: 282.38 g
  Mean group body weight (% from baseline): 126.30%
[6]; Day 13
  Mean group body weight: 286.75 g
  Mean group body weight (% from baseline): 128.26%
